This is an account of results in ChEMBL document CHEMBL4433257, “Novel conjugates of podophyllotoxin and coumarin: Synthesis, cytotoxicities, cell cycle arrest, binding CT DNA and inhibition of Topo IIβ” (Bioorg Med Chem Lett, 2019).

For one experiment, the system named is HeLa. Briefly: Cytotoxicity against human HeLa cells incubated for 48 hrs by MTT assay. It is filed as functional, cell-based.
A further experiment relates to A549. Briefly: Cytotoxicity against human A549 cells incubated for 48 hrs by MTT assay. The experiment is classed as functional, cell-based. As to conditions: A549, 48 h.
In experiment [1] the test system is LoVo. Briefly: Cytotoxicity against human LoVo cells incubated for 48 hrs by MTT assay. The experiment is classed as functional, cell-based.
The next experiment relates to HepG2. Briefly: Cytotoxicity against human HepG2 cells incubated for 48 hrs by MTT assay. The experiment is classed as functional, cell-based. As to conditions: HepG2, 48 h.
Experiment [2] deals with LoVo. Briefly: Cell cycle arrest in human LoVo cells assessed as accumulation at G1 phase at 5 uM incubated for 24 hrs by propidium iodide staining based flow cytometry analysis (reference value: 51.9%). It is filed as functional.
In experiment [3] the test system is LoVo. Briefly: Antiproliferative activity against human LoVo cells assessed as disorganization of microtubule network at 10 uM incubated for 6 hrs by immunofluorescence microscopy assay. It is filed as functional, cell-based.
Experiment [4] concerns LoVo. Briefly: Induction of cell cycle arrest in human LoVo cells assessed as change in P21 gene expression level at 10 uM incubated for 24 hrs by Western blot analysis. The experiment is classed as functional, cell-based.
For experiment [5], the system named is LoVo. Briefly: Cell cycle arrest in human LoVo cells assessed as accumulation at G1 phase at 5 uM incubated for 72 hrs by propidium iodide staining based flow cytometry analysis relative to control. The experiment is classed as functional.
Experiment [6] relates to LoVo. Briefly: Induction of cell cycle arrest in human LoVo cells assessed as decrease in topo 2beta expression level at 5 uM incubated for 12 hrs by Western blot analysis. The experiment is classed as functional, cell-based.
In experiment [7] the test system is LoVo. Briefly: Antiproliferative activity against human LoVo cells assessed as nuclear changes at 10 uM incubated for 6 hrs by immunofluorescence microscopy assay. It is filed as functional, cell-based.
Experiment [8] has as its system LoVo. Briefly: Induction of cell cycle arrest in human LoVo cells assessed as decrease in topo 2alpha expression level at 5 uM incubated for 12 hrs by Western blot analysis. The experiment is classed as functional, cell-based.
In experiment [9] the test system is LoVo. Briefly: Induction of cell cycle arrest in human LoVo cells assessed as change in cyclin D1 gene expression level at 10 uM incubated for 24 hrs by Western blot analysis. The experiment is classed as functional, cell-based.
Experiment [10] deals with LoVo. Briefly: Induction of cell cycle arrest in human LoVo cells assessed as change in cdc2 gene expression level at 10 uM incubated for 24 hrs by Western blot analysis. The experiment is classed as functional, cell-based.
Experiment [11] relates to LoVo. Briefly: Induction of cell cycle arrest in human LoVo cells assessed as decrease in cyclin D1 gene expression level at 10 uM incubated for 24 hrs by Western blot analysis. It is filed as functional, cell-based.
Experiment [12] deals with Calf thymus DNA. Briefly: Binding affinity to calf thymus DNA assessed as reduction in compound emission intensity at 10 uM using varying DNA level by spectrofluorimetric analysis. It is filed as nucleic-acid assay. The following applies: Bos taurus.
The test system of experiment [13] is LoVo. Briefly: Induction of cell cycle arrest in human LoVo cells assessed as decrease in cyclin D1 gene expression level incubated for 24 hrs by Western blot analysis. The experiment is classed as functional, cell-based.
The subject of experiment [14] is LoVo. Briefly: Cell cycle arrest in human LoVo cells assessed as accumulation at G1 phase at 10 uM incubated for 24 hrs by propidium iodide staining based flow cytometry analysis (reference value: 51.9%). It is filed as functional.
Experiment [15] concerns LoVo. Briefly: Induction of cell cycle arrest in human LoVo cells assessed as increase in P21 gene expression level incubated for 24 hrs by Western blot analysis. It is filed as functional, cell-based.
Experiment [16] concerns LoVo. Briefly: Antiproliferative activity against human LoVo cells assessed as interference with mitosis at 10 to 20 uM incubated for 6 hrs by immunofluorescence microscopy assay. The experiment is classed as functional, cell-based.
Experiment [17] relates to LoVo. Briefly: Cell cycle arrest in human LoVo cells assessed as accumulation at G1 phase at 5 uM incubated for 48 hrs by propidium iodide staining based flow cytometry analysis relative to control. The experiment is classed as functional.
The subject of experiment [18] is LoVo. Briefly: Antiproliferative activity against human LoVo cells assessed as disruption of microtubule organization at 10 to 20 uM incubated for 6 hrs by immunofluorescence microscopy assay. It is filed as functional, cell-based.
Experiment [19] deals with LoVo. Briefly: Antiproliferative activity against human LoVo cells assessed as meshy microtubule network shrinkage around nucleus incubated for 6 hrs by immunofluorescence microscopy assay. The experiment is classed as functional, cell-based.
For experiment [20], the system named is LoVo. Briefly: Induction of cell cycle arrest in human LoVo cells assessed as change in cyclin B1 gene expression level at 1 to 10 uM incubated for 24 hrs by Western blot analysis. The experiment is classed as functional, cell-based.
The test system of experiment [21] is LoVo. Briefly: Antiproliferative activity against human LoVo cells assessed as induction of nuclei damage at 10 to 20 uM incubated for 6 hrs by immunofluorescence microscopy assay. It is filed as functional, cell-based.
The subject of experiment [22] is LoVo. Briefly: Cell cycle arrest in human LoVo cells assessed as increase in accumulation at G1 phase incubated for 24 hrs by propidium iodide staining based flow cytometry analysis. It is filed as functional.
The subject of experiment [23] is Calf thymus DNA. Briefly: Binding affinity to calf thymus DNA assessed as reduction in absorbance of DNA at 20 to 40 uM by UV/visible spectrophotometric analysis. It is filed as nucleic-acid assay. The following applies: Bos taurus.
In experiment [24] the test system is LoVo. Briefly: Induction of cell cycle arrest in human LoVo cells assessed as change in cdc2 gene expression level at 1 to 10 uM incubated for 24 hrs by Western blot analysis. The experiment is classed as functional, cell-based.
Experiment [25] has as its system LoVo. Briefly: Cell cycle arrest in human LoVo cells assessed as decrease in G2/M phase cell count incubated for 24 hrs by propidium iodide staining based flow cytometry analysis. It is filed as functional.
In experiment [26] the test system is LoVo. Briefly: Antiproliferative activity against human LoVo cells assessed as abnormal mitotic spindle formation at 20 uM incubated for 6 hrs by immunofluorescence microscopy assay. It is filed as functional, cell-based.
For experiment [27], the system named is LoVo. Briefly: Antiproliferative activity against human LoVo cells assessed as induction of nuclear cleavage at 20 uM incubated for 6 hrs by immunofluorescence microscopy assay. It is filed as functional, cell-based.
Experiment [28] concerns Calf thymus DNA. Briefly: Binding affinity to calf thymus DNA assessed as reduction in absorbance of DNA at 50 uM using varying DNA level by UV/visible spectrophotometric analysis. The experiment is classed as nucleic-acid assay. The following applies: Bos taurus.

Structures are written as SMILES. The source made the active and inactive calls. The rule behind the calls is not given here.

Turning to `COc1cc([C@@H]2c3cc4c(cc3[C@@H](n3cc(COc5cc(=O)oc6ccc(C)cc56)nn3)[C@H]3COC(=O)[C@H]23)OCO4)cc(OC)c1O`, the half-inhibitory concentration (IC50) in the experiment with HeLa is 45.4 µM; with A549 it was above 100 µM; in the experiment with LoVo [1], 33.2 µM; in the experiment on HepG2, 40.2 µM.

As to `COc1cc([C@@H]2c3cc4c(cc3[C@@H](n3cc(COc5cc(=O)oc6ccc(Br)cc56)nn3)[C@H]3COC(=O)[C@H]23)OCO4)cc(OC)c1O`, the half-maximal inhibitory concentration (IC50) in the experiment on HeLa came out at 20.1 µM; in the experiment on A549, 27.7 µM; in the experiment with LoVo [1], 19.8 µM; with HepG2 it was 4 µM.

As to `COc1ccc2c(NCc3cn([C@@H]4c5cc6c(cc5[C@@H](c5cc(OC)c(O)c(OC)c5)[C@H]5C(=O)OC[C@@H]54)OCO6)nn3)cc(=O)oc2c1`, the IC50 in the experiment with HeLa worked out at 48.2 µM; in the experiment on A549 it was 28.1 µM; in the experiment with LoVo [1] it was 12.6 µM; with HepG2, 11.1 µM.

As to `COc1cc([C@@H]2c3cc4c(cc3[C@@H](O[C@@H]3O[C@@H]5CO[C@@H](C)O[C@H]5[C@H](O)[C@H]3O)[C@H]3COC(=O)[C@H]23)OCO4)cc(OC)c1O` [ETOPOSIDE], the values for the Activity in the experiment with LoVo [2] and in the experiment with LoVo [5] were 29.5% and 2%, respectively. The outcome in the experiment with LoVo [3], with LoVo [4], in the experiment with LoVo [6], with LoVo [8], with LoVo [9] and in the experiment on LoVo [10] was Active. The outcome with LoVo [11] was Active. In the experiment with LoVo [7], the result was inactive. In addition, the results for the IC50 in the experiment with A549, in the experiment with LoVo [1] and with HepG2 were 25.6 µM, 14.9 µM and 10.5 µM, respectively.

Consider `COc1ccc2oc(=O)cc(NCc3cn([C@@H]4c5cc6c(cc5[C@@H](c5cc(OC)c(O)c(OC)c5)[C@H]5C(=O)OC[C@@H]54)OCO6)nn3)c2c1`, for which the Activity with LoVo [2] is 62%; in the experiment with LoVo [13], “Dose-dependent effect”; in the experiment with LoVo [14], 79%; in the experiment on LoVo [15], “Dose-dependent effect”; in the experiment on LoVo [5], 90%; with LoVo [17], 70.1%. For the same molecule, the Activity entry with LoVo [22] and in the experiment with LoVo [25] was “Dose-dependent effect” each time. Moreover, the outcome in the experiment on Calf thymus DNA [12], in the experiment on LoVo [16], in the experiment with LoVo [6], with LoVo [18], in the experiment on LoVo [19] and in the experiment with LoVo [8] was Active. For the same molecule, the outcome in the experiment on LoVo [21], with Calf thymus DNA [23], in the experiment with LoVo [26] and with LoVo [27] was Active. For the same molecule, the IC50 worked out at 9.7 µM in the experiment on HeLa, 17.5 µM in the experiment on A549, 4.9 µM with LoVo [1] and 9.9 µM with HepG2. Further, the outcome in the experiment with LoVo [20], in the experiment on LoVo [24] and with Calf thymus DNA [28] was inactive.

Consider `COc1ccc2c(OCc3cn([C@@H]4c5cc6c(cc5[C@@H](c5cc(OC)c(O)c(OC)c5)[C@H]5C(=O)OC[C@@H]54)OCO6)nn3)cc(=O)oc2c1`, for which the IC50 was above 100 µM in the experiment on HeLa, 40.3 µM in the experiment on A549, above 100 µM in the experiment with LoVo [1] and 27.5 µM in the experiment on HepG2.

As to `COc1cc([C@@H]2c3cc4c(cc3[C@@H](n3cc(CNc5cc(=O)oc6ccc(C)cc56)nn3)[C@H]3COC(=O)[C@H]23)OCO4)cc(OC)c1O`, the IC50 worked out at 38.3 µM with HeLa, 34.8 µM with A549, 76 µM with LoVo [1] and 17.2 µM in the experiment with HepG2.

In the case of `COc1cc([C@@H]2c3cc4c(cc3[C@@H](n3cc(COc5cc(=O)oc6cc(Br)ccc56)nn3)[C@H]3COC(=O)[C@H]23)OCO4)cc(OC)c1O`, the half-inhibitory concentration (IC50) is above 100 µM with HeLa, 23.8 µM in the experiment with A549, 24.2 µM in the experiment with LoVo [1] and 15.6 µM in the experiment on HepG2.

Regarding `COc1cc([C@@H]2c3cc4c(cc3[C@@H](n3cc(CNc5cc(=O)oc6cc(Br)ccc56)nn3)[C@H]3COC(=O)[C@H]23)OCO4)cc(OC)c1O`, the IC50 came to 19.8 µM in the experiment on HeLa, 13.3 µM in the experiment with A549, 7.3 µM in the experiment with LoVo [1] and 13.6 µM in the experiment on HepG2.

Consider `COc1cc([C@@H]2c3cc4c(cc3[C@@H](n3cc(CNc5cc(=O)oc6ccccc56)nn3)[C@H]3COC(=O)[C@H]23)OCO4)cc(OC)c1O`, for which the concentration for half-maximal inhibition (IC50) came to 27.2 µM with HeLa, 21.4 µM with A549, 38.6 µM with LoVo [1] and 27.5 µM in the experiment with HepG2.

With `COc1cc([C@@H]2c3cc4c(cc3[C@@H](n3cc(CNc5cc(=O)oc6ccc(Br)cc56)nn3)[C@H]3COC(=O)[C@H]23)OCO4)cc(OC)c1O`, the IC50 with HeLa was found to be 15.2 µM; in the experiment with A549 it was 8.6 µM; with LoVo [1], 8.7 µM; in the experiment with HepG2 it was 9.3 µM.

Turning to `COc1cc([C@@H]2c3cc4c(cc3[C@@H](n3cc(COc5cc(=O)oc6ccccc56)nn3)[C@H]3COC(=O)[C@H]23)OCO4)cc(OC)c1O`, the IC50 in the experiment with HeLa was 32.2 µM; with A549 it was above 100 µM; in the experiment on LoVo [1], 40.8 µM; with HepG2, 31.3 µM.

On to `COc1ccc2oc(=O)cc(OCc3cn([C@@H]4c5cc6c(cc5[C@@H](c5cc(OC)c(O)c(OC)c5)[C@H]5C(=O)OC[C@@H]54)OCO6)nn3)c2c1`, for which the half-maximal inhibitory concentration (IC50) came out at 18.3 µM with HeLa, 19.6 µM in the experiment on A549, 9.4 µM in the experiment on LoVo [1] and 8 µM with HepG2.
